The test system of assay [1] is osteoclast lineage cells (osteoclasts and their mononuclear precursors). The experiment in a line: RANKL-induced osteoclast differentiation (osteoclast number by TRAP staining, cell size by surface area measurement). It counts as cell-based, mouse. Conditions: for osteoclast lineage cells size: phloretin 50 μM added for the last day, mean ± SEM of at least 50 cells. As to the method:
(§1) Bone marrow cells (BMMs) were prepared from the long bones of 7-9 week old BALB/c male mice. Primary BMMs were prepared by flushing mouse femurs and tibias with α-MEM. Cells were cultured in Petri dishes, in complete α-MEM, supplemented with 10% CMG14-12 culture supernatant, which served as a source of M-CSF. After 3 days of culture, plates were washed 3 to 4 times with PBS to remove non-adherent cells. Adherent cells were removed with trypsin-EDTA solution, centrifuged and resuspended in a fresh medium. Murine macrophage-like RAW264.7 cell line was maintained in RPMI 1640 medium supplemented with 10% fetal calf serum (FCS) in the presence of antibiotics (penicillin and streptomycin). Cells were cultured at 37° C. incubator in a humidified atmosphere with 5% CO2, and media were changed every other day. BMMs (7×10^3/well in α-MEM containing 10% FCS and supernatant from CMG14-12 [1:20]) or RAW264.7 cells (3×10^3/well in RPMI-1640 containing 10% FCS) were incubated in 96-well plates (0.2 ml/well). To induce cells to differentiate into osteoclasts, bacterially-produced recombinant RANKL was added at the time of plating. On day 3, medium was changed and on day 5, osteoclast formation was evaluated (see below). A commercial kit (Cat. No. 387-A, Sigma) was used according to the manufacturer instructions. TRAP-positive cells containing three or more nuclei were scored as osteoclasts. The surface area occupied by osteoclasts and their precursors was quantified using a computerized image analysis system (Olympus BX50, DP50, software: ImagePro Plus, Media Cybernetics). In the following assay the significance of the activity of AQP-9 to osteoclast differentiation was determined.

Another assay relates to bone marrow cells (BMMs). The experiment in a line: Methylene blue uptake. As to conditions: FIG. 5. The format is cell-based, mouse. As to the method: as §1, with “To induce cells to differentiate into osteoclasts, bacterially-produced recombinant RANKL was added at the time of plating.” left out, “below).” for “below). A commercial kit (Cat. No. 387-A, Sigma) was used according to the manufacturer instructions. TRAP-positive cells containing three or more nuclei were scored as osteoclasts. The surface area occupied by osteoclasts and their precursors was quantified using a computerized image analysis system (Olympus BX50, DP50, software: ImagePro Plus, Media Cybernetics). In the following assay the significance of the activity of AQP-9 to osteoclast differentiation was determined.”
Cells were seeded as for the osteoclast differentiation assay (see above). Monolayers were fixed and methylene blue uptake was measured as described [Goldman, R., and Bar-Shavit, Z. (1979) J. Natl. Cancer Inst. […]

As to `O=C(CCc1ccc(O)cc1)c1c(O)cc(O)cc1O` [Phloretin, 2′,4′,6′-Trihydroxy-3-(4-hydroxyphenyl)-propiophenone], the “osteoclast lineage cells size” value was found to be 23722 ± 4351 μm^2 in assay [1] (+RANKL for 5 days) and 267 ± 6 μm^2 in assay [1] (−RANKL (mononuclear precursors)). For the same compound, the “effect on osteoclast number” value in assay [1] (+RANKL for 5 days, phloretin added for the last day, FIG. 4A-4D) was “dramatic reduction”. Moreover, the “effect on osteoclast size” value in assay [1] (+RANKL for 5 days, phloretin added for the last day, FIG. 4A-4D, Table 3) was “dramatic reduction”. Besides, in assay [1] (cells not treated with RANKL), the “effect on number of the mononuclear precursors” value is on record as “did not exhibit a significant effect”. The “effect on size of the mononuclear precursors” value in assay [1] (cells not treated with RANKL) is “did not exhibit a significant effect”. The “effect on methylene blue uptake” value with bone marrow cells (BMMs) (RANKL-treated cells) was “marked inhibition”; in the assay with bone marrow cells (BMMs) (mononuclear precursors (BMMs grown in the absence of RANKL)), “No effect”.

The values are drawn from patent US8835390B2, “Modulation of osteoclast differentiation” (Osteobuild Ltd., priority 2005, dated 2014).
